# Assay results taken from patent US20080119492A1, “Compositions and methods for treating cancer and other diseases characterized by abnormal cell proliferation” (priority 2005, published 2008).
# Assays:
# [1] = system: telomere and telomerase (hTERT) in GBM cell lines SF 763 and SF 767; assay: Effects on telomere and telomerase (telomere length, hTERT expression by real-time RT-PCR); format: cell-based, human; details: 1 μM ThAcr2, 7 and 14 days
# Description: (§1) The effects of 1 μM ThAcr2 on telomere and telomerase after 7 and 14 days of treatment were evaluated.
# SF 767 cells [2] = assay: Long-term (50 days) treatment with ThAcr2; format: cell-based, human; details: 1 μM ThAcr2 for 50 days, from day 30
# Description: (§2) To further investigate the tumor-growth inhibition effect of ThAcr2 as a single agent, the GBM cells were exposed to 1 μM ThAcr2 for 50 days.
# SF 763 cells [3] = assay: Long-term (50 days) treatment with ThAcr2; format: cell-based, human; details: from day 30
# Description: as §2
# glioblastoma cells = assay: Administration of compositions comprising ThAcr2 to glioblastoma cells; format: cell-based
# [4] = system: GBM cell lines SF 763 and SF 767; assay: Short-term (3 days) cell viability; format: cell-based, human; details: 0.5, 1 and 2 μM
# SF 767 cells [5] = assay: Growth of GBM cells in continuous 14-day culture with ThAcr2; format: cell-based, human; details: 0.5, 1 and 2 μM ThAcr2, continuous 14 days
# Description: (§3) GBM cells were maintained in culture for 14 days in the presence of 0.5, 1 and 2 μM ThAcr2.
# SF 763 cells [6] = assay: as above; format: cell-based, human; details: 0.5, 1 and 2 μM ThAcr2, continuous 14 days, more pronounced effect on SF 763
# Description: as §3
# SF 763 cell = assay: Cytogenetic analysis of telomere fusions; format: cell-based, human
# Description: The fusion frequency was 0.3 in untreated cells and 1.6 in ThAcr2-treated cells.
# as §1
# SF 767 cells [7] = assay: Clonogenic survival, ThAcr2 combined with X-rays; format: cell-based, human; details: 0.5 μM ThAcr2 for 14 days, replated, 2-Gy X-rays, corrected for ThAcr2 alone
# Description: (§4) To explore the effect of ThAcr2 in combination with ionizing radiation on GBM cells, clonogenic survival of SF 763 and SF 767 cells was analyzed. Although both cell lines were radio-resistant, the surviving fraction after 2 Gy was greater in SF 763 (80%) than in SF 767 cells (56%), indicating stronger resistance of SF 763 cells to radiation.
# (§5) For combination experiments, non-toxic sub-apoptotic ThAcr2 concentrations of 0.5 and 1 μM were utilized. […] SF 763 cells were treated with […] ThAcr2 for 7 days, then replated and irradiated with a 3 Gy-dose of X-rays. SF 767 cells were treated with 0.5 μM ThAcr2 for 14 days, then replated and irradiated with a 2-Gy dose. […] The combination of ThAcr2 with radiation was additive when the ThAcr2 treatment started after irradiation.
# SF 763 cells [8] = assay: Clonogenic survival, ThAcr2 combined with X-rays; format: cell-based, human; details: 1 μM ThAcr2 for 7 days, replated, 3 Gy X-rays, corrected for ThAcr2 alone
# Description: as §4, §5
# GBM tumor cells = assay: Clonogenic survival, ThAcr2 combined with radiation, schedule of combination; format: cell-based, human
# Description: as §4, §5
# GBM cells = assay: Flow cytometry of cell cycle distribution and apoptosis (annexin-propidium iodide); format: cell-based, human; details: 7 days
# Description: Using flow cytometry, cell cycle distribution and apoptosis in cells treated for 7 days with 0.5-2 μM ThAcr2 were examined. […] The percentage of cells in the G2/M phase increased from 10% to 20%. The annexin-propidium iodide (apoptotic) fraction was essentially identical (9-11%) in control and treated cells at lower ThAcr2 concentrations ([…]) but increased to 34% in cells treated with 2 μM ThAcr2.
# [9] = system: model guanine quadruplexes inspired from human telomeres; assay: Affinity for guanine quadruplexes; format: binding; details: 1:2 mixture of mono- and di-cation species
# Excerpt: U-shaped molecules holding two potentially intercalating units 7 Å apart have been designed to have a moderate affinity for duplex DNA on the basis of the nearest neighbor exclusion principle but may display strong binding affinity for other architectures such as guanine quadruplexes.
substance,measurement,setting,value
"4,6-bis-(6-(10-N-methylacrid-9-ylinium)pyridin-2-yl)-pyrimidine bistriflate [ThAcr2]",telomere length,[1],did not reduce telomere length
same,rate of cell proliferation after long-term treatment,SF 767 cells [2],increase in the rate of cell proliferation
same,rate of cell proliferation after long-term treatment,SF 763 cells [3]; 1 μM ThAcr2 for 50 days,increase in the rate of cell proliferation
same,overexpression of telomerase,SF 763 cells [3]; 1 μM ThAcr2 long-term,up to 7 fold
same,glioblastoma cells after administration,glioblastoma cells,reduction of glioblastoma cells
same,short-term cell viability,[4],non-toxic
same,tumor cell growth,SF 767 cells [5],inhibited tumor cell growth
same,tumor cell growth,SF 763 cells [6],inhibited tumor cell growth
same,telomere fusions (cytogenetic analysis),"SF 763 cell; 1 μM ThAcr2, day 7",multiple telomere fusions
same,telomere fusion frequency,"SF 763 cell; SF 763 metaphase, FIG. 3, untreated cells 0.3",1.6
same,reduction of surviving fraction of tumor cells,SF 767 cells [7],2.3 fold
same,reduction of surviving fraction of tumor cells,SF 763 cells [8],2.5 fold
same,clonogenic survival with combination therapy versus radiation alone,"GBM tumor cells; FIG. 4, P<0.001",markedly decreased
same,combination of ThAcr2 with radiation,GBM tumor cells; ThAcr2 treatment started after irradiation,additive
same,combination of ThAcr2 with radiation,GBM tumor cells; cells continuously treated before and after irradiation,supra-additive or had a synergistic effect
same,annexin-propidium iodide (apoptotic) fraction,GBM cells; 2 μM ThAcr2,34%
same,percentage of cells in the G2/M phase,"GBM cells; 0.5-2 μM ThAcr2, untreated 10%",20%
same,annexin-propidium iodide (apoptotic) fraction,"GBM cells; lower ThAcr2 concentrations (0.5 and 1 μM), identical in control",9-11%
same,affinity for model guanine quadruplexes,[9],strong affinity
